Assay results taken from US6706740B2, “Fungicidal heterocyclic aromatic amides and their compositions, methods of use and preparation” (Dow AgroSciences LLC, priority 1999, dated 2004).
Read-outs that look alike come from different tables or passages of the source.

Columns and labels:
[1] = tested on: Leptosphaeria nodorum—LEPTNO; experiment: Glume Blotch of Wheat, in vivo whole plant, 24 Hour Protectant; details: for pest or weed control at 100 ppm: Leptosphaeria, read-out: LEPTNO in vivo 1 Day Protectant
[2] = tested on: Phytophthora infestans (PHYTIN); experiment: microbe, parasite or virus in culture; format: cell-based; details: Phytophthora infestans, read-out: PHYTIN in vitro Growth Inhibition
[3] = tested on: Puccinia recondita—PUCCRT; experiment: Brown Rust of Wheat, in vivo whole plant, 24 Hour Protectant; details: for pest or weed control at 100 ppm: Puccinia, control of fungal infection vs untreated plants, read-out: PUCCRT in vivo 1 Day Protectant
[4] = tested on: Phytophthora infestans—PHYTIN; experiment: whole plant or invertebrate; format: in vivo; details: Phytophthora, in Solanum lycopersicum, 24 h, read-out: PHYTIN in vivo 1 Day Protectant
Septoria tritici—SEPTTR = experiment: Leaf Blotch of Wheat, in vivo whole plant, 24 Hour Protectant; details: for pest or weed control at 100 ppm: Zymoseptoria tritici, 24 h, control of fungal infection vs untreated plants, read-out: SEPTTR in vivo 1 Day Protectant
Ustilago maydis (USTIMA) = experiment: microbe, parasite or virus in culture; format: cell-based; details: Mycosarcoma maydis, read-out: USTIMA in vitro Growth Inhibition
[5] = tested on: Magnaporthe grisea (Pyricularia oryzae—PYRIOR); experiment: microbe, parasite or virus in culture; format: cell-based; details: Pyricularia oryzae, read-out: PYRIOR in vitro Growth Inhibition
Erysiphe graminis—ERYSGT = experiment: Powdery Mildew of Wheat, in vivo whole plant, 24 Hour Protectant; details: Erysiphe, read-out: ERYSGT in vivo 1 Day Protectant
[6] = tested on: Rhizoctonia solani (RHIZSO); experiment: microbe, parasite or virus in culture; format: cell-based; details: Rhizoctonia solani, read-out: RHIZSO in vitro Growth Inhibition
[7] = tested on: Stagonospora nodorum (Leptosphaeria nodorum—LEPTNO); experiment: In vitro fungal growth inhibition, Stagonospora nodorum (LEPTNO); format: cell-based; details: Leptosphaeria, read-out: LEPTNO in vitro Growth Inhibition
[8] = tested on: Mycosphaerella graminicola (Septoria tritici—SEPTTR); experiment: In vitro fungal growth inhibition, Mycosphaerella graminicola (SEPTTR); format: cell-based; details: Zymoseptoria tritici, read-out: SEPTTR in vitro Growth Inhibition
[9] = 100 ppm spray, 24 hour protectant, wheat, control of fungal infection vs untreated plants
[10] = 100 ppm spray, 24 hour protectant, wheat
[11] = 100 ppm spray, wheat, 24 hour protectant, control of fungal infection vs untreated plants
[12] = 100 ppm spray, wheat, 24 hour protectant
[13] = wheat plants sprayed at 100 ppm, inoculated after 24 hours, control of fungal infection vs untreated plants
[14] = wheat plants sprayed at 100 ppm, inoculated after 24 hours
[15] = 100 ppm spray, wheat, 24 hour protectant, % control of fungal infection vs untreated plants

| Structure (SMILES) | inhibition at 25 ppm [2] | pest or weed control at 100 ppm [3, 10] | pest or weed control at 100 ppm [4] | pest or weed control at 100 ppm (Septoria tritici—SEPTTR; [10]) | inhibition at 25 ppm (Ustilago maydis (USTIMA)) | inhibition at 25 ppm [5] | pest or weed control at 100 ppm (Erysiphe graminis—ERYSGT; [9]) | inhibition at 25 ppm [6] | inhibition at 25 ppm ([7]; 25 ppm in growth medium) | inhibition at 25 ppm ([8]; 25 ppm in growth medium) | pest or weed control at 100 ppm [3, 12] | pest or weed control at 100 ppm (Septoria tritici—SEPTTR; [12]) | pest or weed control at 100 ppm (Erysiphe graminis—ERYSGT; [11]) | other results |
| --- | --- | --- | --- | --- | --- | --- | --- | --- | --- | --- | --- | --- | --- | --- |
| COc1ccnc(C(=O)NC2COC(C)C2)c1O (stereo not shown) [Compound 310] | < 80% | < 25% | < 25% | < 25% | < 80% | < 80% | 25 to 74% | < 80% | < 80% | < 80% |  |  |  | pest or weed control at 100 ppm [1, 9]: < 25% |
| COC(=O)C(CO)NC(=O)c1nccc(OC)c1O (stereo not shown) [Compound 340] | < 80% |  | < 25% |  | < 80% | < 80% |  | < 80% | < 80% | < 80% | < 25% | < 25% | 25 to 74% | pest or weed control at 100 ppm [1, 11]: 25 to 74% |
| COc1ccnc(C(=O)NC2CC(C)(C)CC3(C2)CC3(F)F)c1O (stereo not shown) [Compound 255] | < 80% | 25 to 74% | < 25% | 25 to 74% | < 80% | < 80% | < 25% | < 80% | < 80% | > 80% |  |  |  | LEPTNO in vivo 1 Day Protectant [1, 9]: + + |
| C=C(C)C(=O)O[C@H]1[C@H](C)OC(=O)[C@@H](NC(=O)c2nccc(OC)c2O)COC(=O)[C@@H]1Cc1ccccc1 [Compound 386] | < 80% |  | < 25% |  | < 80% | < 80% |  | < 80% | > 80% | > 80% | 25 to 74% | 25 to 74% | 25 to 74% | LEPTNO in vivo 1 Day Protectant [1, 11]: + + |
| COc1cc(Br)nc(C(=O)N[C@H]2COC(=O)[C@H](Cc3ccccc3)[C@@H](OC(=O)C3CCCCC3)[C@H](C)OC2=O)c1O [Compound 501] | < 80% |  | < 25% |  | > 80% | > 80% |  | < 80% |  |  |  |  |  | pest or weed control at 100 ppm [1, 13]: 25 to 74%; pest or weed control at 100 ppm [3, 14]: 25 to 74%; pest or weed control at 100 ppm (Septoria tritici—SEPTTR; [14]): < 25%; pest or weed control at 100 ppm (Erysiphe graminis—ERYSGT; [13]): < 25%; inhibition at 25 ppm ([7]; 25 ppm in the growth medium): > 80%; inhibition at 25 ppm ([8]; 25 ppm in the growth medium): > 80% |
| COc1ccnc(C(=O)Nc2cccc(Oc3ccccc3Cl)c2)c1O [Compound 439] | < 80% |  | < 25% |  | < 80% | < 80% |  | < 80% | < 80% | < 80% | 25 to 74% | < 25% | < 25% | pest or weed control at 100 ppm [1, 11]: 25 to 74% |
| COc1ccnc(C(=O)NC2CC(C)(C)C3OC3[C@H](C)[C@H]2C)c1O (stereo partly shown) [Compound 280] | < 80% | 25 to 74% | 25 to 74% | 25 to 74% | < 80% | < 80% | < 25% | < 80% | < 80% | < 80% |  |  |  | pest or weed control at 100 ppm [1, 9]: 25 to 74% |
| COc1ccnc(C(=O)N[C@H]2COC(=O)[C@H](Cc3ccccc3)[C@@H](OC(=O)C(C)C)[C@H](C)OC2=O)c1OC(=O)COCc1ccccc1 [Compound 656] | < 80% |  | < 25% |  | < 80% | > 80% |  | < 80% | > 80% | < 80% |  |  |  | LEPTNO in vivo 1 Day Protectant [1, 15]: + +; PUCCRT in vivo 1 Day Protectant [3, 15]: + +; SEPTTR in vivo 1 Day Protectant (Septoria tritici—SEPTTR; [15]): + +; pest or weed control at 100 ppm (Erysiphe graminis—ERYSGT; [15]): < 25% |
